Experimental data reported in patent publication US20260325485A1, “COMPOSITIONS AND METHODS FOR TREATING PANCREATITIS” (The United States Government as represented by the …, priority 2022, published 2026).

Columns and labels:
muscles = settings: prodrug activated in the liver; cited from earlier work
CER/CCK-AP = assay: Effect of simvastatin and BemA in CER/CCK-AP (mouse and ex-vivo model)
Procedure: (§1) FIGS. 25A-25C show reducing cholesterol overload greatly ameliorates experimental pancreatitis. CER-AP responses were measured in (A) AclyAac or (C) WT mice treated with simvastatin or bempedoic acid (BemA). (B) Acinar cells were transfected with ACLA (or mock) siRNA and subjected to ex-vivo CCK-AP. Each symbol represents an individual mouse or cell preparation. Values are mean±SE. **p<0.01, ***p<0.001 vs saline treated control mice (or mock transfection); #p<0.05, ##p<0.01, ###p<0.001 vs CER/CCK-AP in control mice (i.e. without inhibitors) or cells.
FIGS. 26A-26D preventing cholesterol overload ameliorates ex-vivo pancreatitis. Mouse pancreatic acinar cells were incubated (A, B) with simvastatin (4 μM, 3 h) or (C, D) cholesterol chelator, methyl-β-cyclodextrin (MCD; 10 mM, 1 h) and then subjected to CCK-AP for 1 (D) or 3 h (A, B). Cholesterol content (A, C) necrosis (B), and trypsin activity (D) were measured. Each symbol represents an individual cell preparation. Values are mean±SEM*p<0/05, **p<0.01 vs control; #p<0.05 ##p<0.01; vs CCK, no inhibitor.
Cholesterol metabolism is disrupted in pancreatitis as a result of lysosomal/autophagy dysfunction. Preventing acinar cell cholesterol overload with simvastatin alleviates AP in one experimental model (CER-AP). As discussed above, lysosomal/autophagy dysfunction is associated with both experimental and human pancreatitis.^6, 7, 9, 13, 17 However, until a recent publication^13 there was very little known on cholesterol metabolism in healthy pancreas, its changes in experimental and human pancreatitis, and role in disease severity. Further, effects of statins and other cholesterol-lowering drugs in pancreas, and the underlying mechanisms, have not been explored. […] This, in turn, stimulates a compensatory increase in cholesterol synthesis, further exacerbating cholesterol overload. It was further shown^13 that inhibition of cholesterol synthesis with simvastatin reduced acinar cell cholesterol overload and the severity of pancreatitis induced with supramaximal cerulein (CER), an ortholog of the hormone cholecystokinin-8 (CCK). The findings^13 reveal a previously unrecognized pathogenic role of cholesterol dysregulation in pancreatitis and indicate normalizing cholesterol metabolism as a novel therapeutic approach for disease treatment.
In summary, the published^13 and current data (FIGS. 23-26) reveal that disruption of acinar cell cholesterol metabolism is a common feature in models of experimental pancreatitis and also prominent in human disease. The key manifestation of cholesterol dyshomeostasis in pancreatitis is acinar cell cholesterol overload. […]

[1] = tested on: cerulein pancreatitis (CER-AP); assay: Drug treatment of cerulein pancreatitis (CER-AP) in WT mice; assay type: in vivo, mouse; settings: WT mice treated with simvastatin or BemA
Procedure: FIGS. 10A-10N show deranged cholesterol metabolism causes acinar cell damage, while its normalization ameliorates experimental pancreatitis. (A-D) Cholesterol content and trypsin activity were measured (per mg protein) in WT mouse acinar cells incubated for 1 hour without and with methyl-β-cyclodextrin (MCD; 10 mM) or cholesterol-loaded MCD (MCD-Chol; 200 μg/mL), in the presence or absence of 100 nM CCK. Values are expressed relative to those in cells without MCD/MCD-Chol. (E-J) WT mice received daily i.p. injections of the LXR agonist T0901317 (T09), simvastatin (Sim; 20 mg/kg each), or vehicle. On day 4, mice were subjected to CER-AP and pancreata collected for analyses (see also FIG. 20). Cholesterol content (E), trypsin activity (F), and pancreas histopathology (H&E staining; G) were measured. (H, I, L, and N) IB analysis of markers/mediators of autophagy (LC3, p62), ER stress (CHOP, GRP-78), and mitophagy (Parkin). Ub, ubiquitylated proteins. (J) Mitochondrial fragmentation was assessed by immunostaining for Tom20, as detailed in FIG. 7G. (K and L) Mouse acinar cells were treated for 16 hours with LDL (30 μg/mL) or the combination of LDL and 10 μM U18666A. (M and N) Mice received injections of U18666A as detailed in FIG. 9B. Pancreas histopathology (H&E staining; M) and levels of autophagy markers/mediators (N) were measured. Each symbol in A-F and I represents an individual mouse or cell preparation. Values are mean±SEM from 3 to 7 mice or cell preparations per condition. ^§ P<0.05, ^§§ P<0.01 vs. control cells (without MCD/MCD-Chol). ***P<0.001 vs. saline-treated mice. ^#P<0.05, ^##P<0.01, ^###P<0.001 vs. CER-AP alone (no inhibitors). Significance was determined by 2-tailed Student's t test (A-D) or 1-way ANOVA followed by Tukey's multiple comparison test (E, F, and I). Scale bars: 10 μm.
FIGS. 20A-20C show simvastatin improves cerulein pancreatitis. Mice received daily i.p. injections of simvastatin (Sim; 20 mg/kg) or vehicle (see FIG. 10), and on day 4 were subjected to cerulein pancreatitis (CER-AP). (A) Pancreas histopathology (H&E staining; scale: 10 μm). (B) IB analysis of markers/mediators of autophagy (LC3, p62), ER stress (CHOP), and the MLN64/STARD3 protein mediating cholesterol transfer from LE/Ly to mitochondria. Each IB lane represents an individual mouse; ERK1/2 is the loading control. […] Ub, ubiquitylated proteins. (C) Pancreatitis responses. Values are mean±SEM from 7-13 mice for each condition. ***p<0.001 vs saline control. ^###p<0.001 vs CER-AP alone (no simvastatin). Significance was determined by 1-way ANOVA followed by Tukey's multiple comparisons test.
as §1
Cerulein-induced (CER-AP) and L-arginine induced (Arg-AP) acute pancreatitis models were performed in 12-week-old C57BL/6 mice that received 7 hourly i.p. injections of 50 μg/kg cerulein or 3 hourly i.p. injections of 3.3 g/kg Arg; controls received physiologic saline injections. Mice were euthanized for analyses 7 hours after the first cerulein or 24 hours after the first Arg injection. Choline deficient, ethionine-supplemented (CDE) pancreatitis was induced in young (~5-weeks old) female mice fed either CDE or control diet. Mice were euthanized 72 hours after the diet initiation. These models have been described in detail (1-7).
12-week-old WT mice were subjected for 4 consecutive days to daily i.p. injections of 20 mg/kg simvastatin (8,9) or 20 mg/kg T0901317 (10); or 10 mg/kg U18666A for 15 days (11). […]

SMILES: CC(C)(CCCCCC(O)CCCCCC(C)(C)C(=O)O)C(=O)O [BemA, Bempedoic acid]
- myotoxicity (muscles): minimal
- cholesterol overload, CER/CCK-AP (CER/CCK-AP): prevented
- disease severity, CER/CCK-AP (CER/CCK-AP): reduced
- cholesterol overload in CER-AP (FIG. 25C) [1]: decreased
- inflammation in CER-AP (FIG. 25C) [1]: ameliorated
- necrosis in CER-AP (FIG. 25C) [1]: ameliorated
- trypsin activity in CER-AP (FIG. 25C) [1]: ameliorated
